PMC11433870, “Neurotoxicity, Neuroprotection, In Vitro MAOA/MAOB Inhibitory Activity Assessment, Molecular Docking, and Permeability Assay Studies of Newly Synthesized Hydrazones Containing a Pyrrole Ring” (Molecules, 2024)
Several values for one entry are separate records, joined by “and”; a condition that tells them apart may be missing. Identical values can stand only once.

Legend:
[1] = tested on: isolated rat brain mitochondria; experiment: Neurotoxicity: GSH level in brain mitochondria, substances applied alone; type: cell-based; details: 50 µM applied alone, compared to control
Procedure: (§1) Synaptosomes and mitochondria were obtained by multiple, subcellular fractionation using a Percoll gradient. The necessary brain homogenate was prepared and centrifuged at 1000× g for 5 min at +4 °C. After centrifugation, the supernatants were collected and centrifuged again at 1000× g for 5 min at +4 °C. The supernatants from the two centrifugations were mixed and distributed into four tubes. The tubes were centrifuged at 10,000× g for 20 min at +4 °C three times. The last two centrifugations were for purification of synaptosomes and mitochondria.
(§2) The isolation of the required fractions was based on the formation of a colloidal solution of silicon (Percoll), as per the procedure, including: 1. Preparation of a 90% stock solution of Percoll, followed by preparation of two Percoll solutions of different percentages: 16% and 10%. An amount of 4 mL of each of the prepared 16% and 10% Percoll solutions was placed in six test tubes. A 90% Percoll (7.5% Percoll) was added to the precipitate obtained from the previous step from the last centrifugation. The obtained mixtures in all 12 tubes were centrifuged for 20 min at 15,000× g +4 °C. After centrifugation, three layers are formed in the tubes. The bottom layer contains mitochondria, the top layer contains lipids, and the middle layer—at the 16% to 10% Percoll limit—contains synaptosomes. The respective layer from each tube is removed through a glass pasteurizer and collected into one. Buffer B + glucose is added to it. The mixture was centrifuged at 10,000× g for 20 min at +4 °C. Thus, the isolation buffer is exchanged with the incubation buffer. After centrifugation, the pellet where the synaptosomes are mixed and made up with buffer B + glucose.
[…]. After centrifugation of the homogenate at 6000× g, a 0.04% solution of DTNB was added to the supernatant to give a yellow color, the determination being spectrophotometric at 412 nm.

[2] = target: T1, human recombinant MAOA enzyme (hMAOA) (Homo sapiens, UniProt P21397); experiment: Human recombinant MAOA enzyme activity (fluorometric, Amplex Red); type: biochemical; details: read-out: IC50 (EC50), (µM ± SD) hMAOA
T1 sequence (P21397 1-527): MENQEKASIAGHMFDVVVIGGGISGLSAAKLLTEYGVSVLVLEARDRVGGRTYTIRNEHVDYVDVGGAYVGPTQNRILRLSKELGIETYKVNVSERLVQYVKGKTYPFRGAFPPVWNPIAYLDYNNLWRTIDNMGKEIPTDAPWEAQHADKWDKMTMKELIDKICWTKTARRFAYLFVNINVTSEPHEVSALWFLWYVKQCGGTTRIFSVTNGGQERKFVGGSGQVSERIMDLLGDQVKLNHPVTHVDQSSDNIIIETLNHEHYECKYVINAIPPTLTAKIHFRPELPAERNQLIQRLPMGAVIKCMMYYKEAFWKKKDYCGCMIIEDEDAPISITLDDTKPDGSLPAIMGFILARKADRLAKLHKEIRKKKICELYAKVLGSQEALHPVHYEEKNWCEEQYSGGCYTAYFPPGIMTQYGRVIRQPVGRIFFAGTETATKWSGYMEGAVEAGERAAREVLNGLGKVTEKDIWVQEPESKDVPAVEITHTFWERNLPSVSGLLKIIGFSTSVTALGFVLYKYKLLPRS
Procedure: (§7) The activity of recombinant human MAOA/B was determined fluorometrically. Tyramine hydrochloride was used as substrate. The activity is determined by detection of H2O2 production. This production is in turn reported by binding to horseradish peroxidase using N-acetyl-3,7-dihydroxyphenoxazine (AmplexRed, Thermo Fisher Scientific, Waltham, MA, USA) [63].
(§8) Working solutions of the test substances, reagents, and human recombinant MAOA/B enzyme (hMAOA/B) were prepared in reaction buffer according to the manufacturer’s instructions. A pure working solution of MAOA/B in reaction buffer, a working solution of MAOA/B containing hydrogen peroxide, and a pure reaction buffer were used as controls. Substances were applied at a final concentration of 1 µM. The substances together with hMAOB were placed in a 96-well plate (8 samples for each substance), and then the plate was placed in an incubator for 30 min (in the dark, at 37 °C). Fluorimetric readings were performed in a Synergy 2 Microplate Reader at two wavelengths (570 nm and 690 nm).

[3] = pH 7.4, 50 µM, 4 h, 25 °C; Pe calculated in 10^−6 cm/s, presented as −logPe
[4] = tested on: isolated rat brain synaptosomes; experiment: 6-OHDA-induced neurotoxicity model: GSH level; type: cell-based; details: 50 µM in combination with 6-OHDA (150 µM), compared to the toxic agent
Procedure: as §1, §2
(§3) Synaptosomes and mitochondria were incubated with the test substances at a concentration of 50 µM for 1 h.
Synaptosomes were incubated with 6-OHDA (150 μM) for 1 h.
(§4) After precipitation of the proteins with trichloroacetic acid, the thiol groups in the supernatant were determined by DTNB, which produced a yellow-colored compound that absorbs light at λ = 412 nm. After incubation, synaptosomes were centrifuged at 4000× g for 3 min. The supernatant was removed and the pellet taken for GSH determination. It was treated with 5% trichloroacetic acid, then left for 10 min on ice. It was centrifuged at 8000× g for 10 min (2 °C). The supernatant is taken for GSH determination and frozen at −20 °C. Immediately before measurement, the samples are neutralized with 5N NaOH [58].

[5] = tested on: isolated rat brain mitochondria; experiment: t-BuOOH-induced oxidative stress model: GSH level; details: 50 µM in combination with t-BuOOH (75 µM), compared to the toxic agent
[6] = tested on: isolated rat brain microsomes; experiment: Neurotoxicity: MDA production in brain microsomes, substances applied alone; type: cell-based; details: 50 µM applied alone, compared to control
Procedure: (§5) The brain was homogenized in 9 volume parts of 0.1 M Tris buffer containing: 0.1 mM dithiothreitol, 0.1 mM phenylmethylsulfonyl fluoride, 0.2 mM EDTA, 1.15% KCl, and 20% (v/v) glycerol (pH 7.4). The resulting homogenate was centrifuged twice at 17,000× g for 30 min. The supernatants from the two centrifugations were pooled and centrifuged twice at 100,000× g for 1 h. The pellet was frozen in 0.1 M Tris buffer.
(§6) After completion of incubation of the microsomes with the substances and toxic agent, the reaction was stopped by the addition of 0.5 mL of 20% trichloroacetic acid, followed by 0.5 mL of 0.67% thiobarbituric acid. The ongoing reactions are associated with the formation of a colored complex between the malondialdehyde formed and thiobarbituric acid. The determination of MDA was spectrophotometric at 535 nm. A molar extinction coefficient of […] was used for the calculation.

[7] = tested on: isolated rat brain mitochondria; experiment: Neurotoxicity: MDA production in brain mitochondria, substances applied alone; type: cell-based; details: 50 µM applied alone, compared to control
Procedure: as §1, §2, §3
To the mitochondria was added 0.3 mL of 0.2% thiobarbituric acid and 0.25 mL of sulfuric acid (0.05 M), and the mixture was boiled for 30 min. After boiling, the tubes were placed on ice, and 0.4 mL of n-butanol was added to each, then centrifuged at 3500× g for 10 min. The amount of MDA was determined spectrophotometrically at 532 nm.

[8] = tested on: isolated rat brain synaptosomes; experiment: Neurotoxicity: reduced glutathione (GSH) level in synaptosomes, substances applied alone; type: cell-based; details: 50 µM applied alone, 1 h, compared to control
Procedure: as §1, §2, §3, §4

[9] = tested on: isolated rat brain mitochondria; experiment: t-BuOOH-induced oxidative stress model: MDA production; details: 50 µM in combination with t-BuOOH (75 µM), compared to the toxic agent
[10] = tested on: isolated rat brain microsomes; experiment: Fe2+/AA-induced non-enzyme lipid peroxidation model: MDA production; type: cell-based; details: 50 µM in combination with Fe2+/AA, compared to the toxic agent
Procedure: as §5
Non-enzyme-induced lipid peroxidation was induced with 20 μM ferrous sulfate solution and 0.5 mM ascorbic acid solution [62].
as §6

[11] = tested on: isolated rat brain synaptosomes; experiment: Neurotoxicity: synaptosomal viability (MTT), substances applied alone; type: cell-based; details: 50 µM applied alone, 1 h, compared to control (untreated synaptosomes)
Procedure: as §1, §2, §3
After 1 h incubation with the substances and toxic agent, synaptosomes were centrifuged on a microcentrifuge for 1 min at 15,000× g. The pellet was mixed gently with buffer B + glucose, and the supernatant where 6-OHDA was discarded to prevent oxidation of MTT. Centrifuge again at 15,000× g for 1 min. After the second wash, buffer B + glucose was added to the pellet. To the ‘washed’ synaptosomes, 60 µL of MTT solution is added. The plates were incubated with the MTT solution at 37 °C for 10 min. After incubation, the samples were centrifuged at 15,000× g for 2 min. The excess liquid was removed, and a DMSO solution was used to dissolve the formed formazan crystals. After dissolution, the amount of formazan is measured spectrophotometrically at λ = 580 nm.

[12] = target: T2, human recombinant MAOB enzyme (hMAOB) (Homo sapiens, UniProt P27338); experiment: Human recombinant MAOB enzyme activity (fluorometric, Amplex Red); type: biochemical; details: for inhibition at 1 µM: compared to control (pure hMAOB); for IC50: read-out: IC50 (EC50), (µM ± SD) hMAOB;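 as to all read-outs here: tyramine as substrate, H2O2 formation detected by horseradish peroxidase coupled Amplex Red fluorescence read at 570 and 690 nm, compounds incubated with enzyme 30 min at 37 °C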
T2 sequence (P27338 1-520): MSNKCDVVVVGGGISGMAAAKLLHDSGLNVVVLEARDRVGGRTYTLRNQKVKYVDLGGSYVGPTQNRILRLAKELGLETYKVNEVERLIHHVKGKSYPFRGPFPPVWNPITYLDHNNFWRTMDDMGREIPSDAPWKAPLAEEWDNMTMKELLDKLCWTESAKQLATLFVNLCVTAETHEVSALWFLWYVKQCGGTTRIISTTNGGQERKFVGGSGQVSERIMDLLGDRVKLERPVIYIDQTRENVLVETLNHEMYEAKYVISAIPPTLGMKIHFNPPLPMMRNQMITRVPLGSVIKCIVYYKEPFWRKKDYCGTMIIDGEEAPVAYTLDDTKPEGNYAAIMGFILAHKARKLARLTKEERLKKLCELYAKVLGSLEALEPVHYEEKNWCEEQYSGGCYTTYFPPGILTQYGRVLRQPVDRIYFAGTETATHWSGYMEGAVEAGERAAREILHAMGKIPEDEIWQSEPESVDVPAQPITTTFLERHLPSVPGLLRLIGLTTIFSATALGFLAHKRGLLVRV
Procedure: as §7, §8

SMILES | decrease of GSH level [1] | IC50 [2] | PAMPA BBB −logPe [3] | preservation of GSH level [4] | preservation of GSH level [5] | increase of MDA production [6] | increase of MDA production [7] | decrease of glutathione (GSH) level [8] | reduction of MDA production [9] | decrease of MDA production [10] | decrease of synaptosomal viability [11] | SI: hMAOB selectivity index = IC50(hMAOA)/IC50(hMAOB) [12] | inhibition at 1 µM [12] | IC50 [12]
CCOC(=O)c1cc(-c2ccc(Br)cc2)n(CC(=O)NN=Cc2ccc(N(C)C)cc2)c1C [7a] | 20% | > 100 µM | 4.849 ± 0.043 | 50% | 40% | 54% | 63% | 25% | 14% | 34% | 30% | >123 | 20% | 0.812 ± 0.1 µM
CCOC(=O)c1cc(-c2ccc(Br)cc2)n(CC(=O)NN=Cc2ccc(Cl)cc2)c1C [7b] | 15% | > 100 µM | 4.416 ± 0.022 and 4.416 | 60% | 70% | 40% | 43% | 15% | 28% | 46% | 25% | >181 | 40% | 0.551 ± 0.1 µM
CCOC(=O)c1cc(-c2ccc(Br)cc2)n(CC(=O)NN=Cc2ccc([N+](=O)[O-])cc2)c1C [7c] | 25% | > 100 µM | 4.601 ± 0.040 | 50% | 40% | 51% | 53% | 20% | 18% | 35% | 35% | >123 | 25% | 0.815 ± 0.2 µM
CCOC(=O)c1cc(-c2ccc(Br)cc2)n(CC(=O)NN=Cc2cc(OC)c(O)c(OC)c2)c1C [7d] | 15% | > 100 µM | 4.819 ± 0.004 and 4.819 | 70% | 80% | 27% | 34% | 15% | 35% | 52% | 20% | >204 | 45% | 0.491 ± 0.09 µM
CCOC(=O)c1cc(-c2ccc(Br)cc2)n(CC(=O)NN=Cc2ccc(OC)cc2OC)c1C [7e] | 25% | > 100 µM | 4.814 ± 0.15 | 40% | 50% | 52% | 50% | 25% | 10% | 31% | 30% | >123 | 35% | 0.81 ± 0.09 µM
CC(C)NCC(O)COc1cccc2ccccc12.Cl (centres unmarked) [Propranolol HCl, reference compound] |  |  | 4.389 ± 0.014 |  |  |  |  |  |  |  |  |  |  | 
